Among the data in US5242680A, “Thiol-reactive maleimido-based radiolabeling reagents” (Merck & Co., Inc., priority 1991, dated 1993) are Ki and Km values, retold here.

Experiment [1] concerns the target T1, adenylate cyclase (PTH receptor) in human SaOS-2/B10 cells (Homo sapiens, UniProt Q03431).
T1 construct: endogenous in cells; host or cells: SaOS-2/B10 human osteosarcoma cells
T1 sequence (Q03431 27-593): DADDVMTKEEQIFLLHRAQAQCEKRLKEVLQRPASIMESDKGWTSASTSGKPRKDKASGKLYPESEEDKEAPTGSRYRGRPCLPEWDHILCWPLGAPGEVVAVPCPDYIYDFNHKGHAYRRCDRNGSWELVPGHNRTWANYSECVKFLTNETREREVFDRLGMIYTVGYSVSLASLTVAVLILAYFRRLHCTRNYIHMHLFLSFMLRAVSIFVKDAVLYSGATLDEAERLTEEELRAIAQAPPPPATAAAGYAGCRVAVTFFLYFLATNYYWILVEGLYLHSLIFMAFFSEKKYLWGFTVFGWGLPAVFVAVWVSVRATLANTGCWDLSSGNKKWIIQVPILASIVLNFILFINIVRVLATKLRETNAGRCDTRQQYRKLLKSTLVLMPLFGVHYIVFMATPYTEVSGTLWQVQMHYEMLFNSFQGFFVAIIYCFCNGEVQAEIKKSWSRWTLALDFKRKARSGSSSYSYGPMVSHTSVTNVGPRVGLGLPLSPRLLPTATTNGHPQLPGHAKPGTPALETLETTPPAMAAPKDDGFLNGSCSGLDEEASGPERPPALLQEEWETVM
Description: Adenylate cyclase assay, human osteosarcoma B10 cell line (SaOS-2/B10). Type of experiment: cell-based. The settings on record: mean ± SEM, at least three experiments. The procedure: (§1) SaSO-2/B10 cells cultures. The details of maintenance of this cell line in culture were reported previously (see Chorev, M., et al., Intl. J. Peptide & Protein Res. 36, 465-470 (1990)).
(§2) PTH Receptor Binding and Adenylate Cyclase Assays. Kidney-based assays were performed with bovind renal cortical membranes following the procedures previously described (see Goldman, M. E., et al., Endocrinol. 123, 1468-1475 (1988)). Bone-based assays were performed with human SaOS-2/B10 cell cultures. Cyclic AMP was measured using the reported procedure (see Rodan, S. B., et al., J. Clin. Invest. 72, 1511-1515 (1983)), including modifications reported previously (see Chorev. M., et al., Intl. J. Peptide & Protein Res. 36, 465-470 (1990)). Receptor binding affinities for PTHrP analogs were obtained using cells plated in 24-wall dished in RPMI 1640 medium supplemented with 1% BSA, 20 mM HEPES, pH 7.5, and 0.1% azide. [Nle^8,^18, mono-^123 I-Tyr^4 ]bPTH(1-34)NH2 (50,000 cpm/well) was added to confluent monolayers in the absence or presence of varying amounts of analog in a final volume of 0.25 ml. Cultures were incubated at room temperature for 4 hours. Binding reactions were terminated by placing the cultures on ice and washing 4 times with ice cold phosphate buffered saline. Radioactivity associated with the cells was recovered by dissolving the cells in 1 ml of 1N NaOH.
(§3) Data analysis. Inhibition constants for binding (Kb) and adenylate cyclase (Kl) were calculated following a published method (see Cheng, Y. C., et al., Biochem. Pharmacol. 22, 3099-3108 (1973)).

For experiment [2], the target named is T2, PTH receptor (Homo sapiens, UniProt Q03431).
T2 construct: endogenous in cells; host or cells: SaOS-2/B10 human osteosarcoma cells
T2 sequence (Q03431 27-593): T1 sequence (Q03431 27-593)
As to the kind of experiment: PTH receptor binding, human osteosarcoma B10 cell line (SaOS-2/B10). Conditions: inhibiting binding of 95 pM 125I-[Nle8,18,Tyr34]bPTH(1-34)NH2 (footnote a), mean ± SEM, at least three experiments, read-out: Binding Kb. The procedure: as §1, §2, §3

Experiment [3] concerns the target T3, adenylate cyclase (PTH receptor) in bovine renal cortical membranes (Bos taurus, UniProt Q1LZF7).
T3 construct: from tissue; host or cells: bovine renal cortical membranes
T3 sequence (Q1LZF7 29-589): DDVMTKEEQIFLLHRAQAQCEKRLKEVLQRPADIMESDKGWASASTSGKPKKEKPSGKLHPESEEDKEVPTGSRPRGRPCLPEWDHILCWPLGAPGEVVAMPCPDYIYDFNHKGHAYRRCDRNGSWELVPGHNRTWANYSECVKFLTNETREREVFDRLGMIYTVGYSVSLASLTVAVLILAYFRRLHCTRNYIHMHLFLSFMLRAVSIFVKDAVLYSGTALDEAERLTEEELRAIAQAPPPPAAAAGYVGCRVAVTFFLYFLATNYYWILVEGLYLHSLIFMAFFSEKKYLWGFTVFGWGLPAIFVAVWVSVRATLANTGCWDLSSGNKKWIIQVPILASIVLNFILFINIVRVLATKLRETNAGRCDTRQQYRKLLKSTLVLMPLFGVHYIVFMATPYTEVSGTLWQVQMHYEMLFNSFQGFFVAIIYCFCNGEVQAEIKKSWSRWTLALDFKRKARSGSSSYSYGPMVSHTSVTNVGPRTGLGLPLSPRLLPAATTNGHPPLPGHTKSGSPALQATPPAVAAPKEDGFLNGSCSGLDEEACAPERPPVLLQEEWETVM
Description: Adenylate cyclase assay, bovine renal cortical membranes. Type of experiment: biochemical. Conditions: mean ± SEM, at least three experiments. The protocol:
as §2, §3

Experiment [4] has as its target T4, PTH receptor (Bos taurus, UniProt Q1LZF7).
T4 construct: from tissue; host or cells: bovine renal cortical membranes
T4 sequence (Q1LZF7 29-589): T3 sequence (Q1LZF7 29-589)
Description: PTH receptor binding, bovine renal cortical membranes. Conditions: inhibiting binding of 25 nM 125I-[Nle8,18,Tyr34]bPTH(1-34)NH2 (footnote c), mean ± SEM, at least three experiments, read-out: Binding Kb. The procedure:
as §2, §3

For “Ac[Cys^8 (S-2'-(N-succinyl-β-alanyl-3-idotyramide), Leu^11, D-Trp^12 ]-PTHrP(8-34)NH2 [analog 2A]”, the Ki in experiment [1] (antagonizing 0.25 nM [Nle8,18,Tyr34]bPTH(1-34)NH2 (footnote b)) was 2.8 ± 1 nM; on PTH receptor [2] it was 2.4 ± 0.5 nM; in experiment [3] (antagonizing 3 nM [Nle8,18,Tyr34]bPTH(1-34)NH2 (footnote d)) it was 22 ± 5 nM; on PTH receptor [4], 2 ± 0.1 nM.

As a reminder, the Km is the concentration of substrate that gives half-maximal velocity. “[Cys^35 (S-2'-(N-succinyl-β-alanyl-3-iodotyramide)]PTHrP (1-35)NH2 [analog 1A]”: the values for the Km in experiment [1] and in experiment [3] were 0.5 ± 0.04 nM and 36 ± 7 nM, respectively. Besides, the Ki worked out at 4.2 ± 0.7 nM at PTH receptor [2] and 14 ± 2 nM on PTH receptor [4].

As to “[Nle^8,18,Lys^13 (ε-Biotinyl),Tyr^34,Cys^35 (S-2'-(N-succinyl-β-alanyl-3-iodotyramide)]bPTH(1-35)NH2 [analog 3A]”, the Km turned out to be 0.5 ± 0.06 nM in experiment [1] and 6.4 ± 0.7 nM in experiment [3]. The figures for the Ki on PTH receptor [2] and on PTH receptor [4] were 1.7 ± 0.2 nM and 2 ± 0.2 nM, respectively.
